{
  "source": "patent US20250381109A1",
  "about": "“KERATIN TREATMENT FORMULATIONS AND METHODS” (Olaplex, Inc., priority 2014, published 2025)",
  "key": {"[1]": {"assay": "Traditional perm versus perm using maleic acid (Example 6)", "settings": "perm after ammonium thioglycolate or dithiothreitol; after 40 cycles of washing and drying"}, "[2]": {"assay": "Hair breakage due to repeated application of traditional perm and the active agent formulation (Example 7)", "settings": "after dithiothreitol or ammonium thioglycolate; procedure repeated three times over a 48 hour time period"}, "[3]": {"assay": "Hair treated with bleaching formulation applied simultaneously with active agent formulation versus bleaching formulation alone (Example 4)", "set-up": "species or system human", "settings": "3.5 g of 12 wt % in water added to bleaching mixture, two hours", "experimental": "(§1) (1) 0.5 ounces of powder lightener (Clairol Professional, Basic White) and 0.5 ounces of conditioning cream developer (Redken, Blonde Icing) were combined to form a bleaching mixture. 3.5 g of 2-(methacryloyloxy)ethan-1-aminium (Z)-3-carboxyacrylate (12 wt % in water) was added to the bleaching mixture and thoroughly mixed with a brush.\n(§2) (2) The bleaching mixture prepared was brushed onto the swatches of hair with a brush in order to thoroughly coat the strands of hair. The mixture coated hair was wrapped in aluminum paper and allowed to stand under ambient conditions for a period of two hours.\n(§3) (3) After the two hour bleaching period the swatches of hair were washed with shampoo and the hair was subsequently allowed to air dry."}, "[4]": {"assay": "Hair treated with bleaching formulation applied simultaneously with active agent formulation versus bleaching formulation alone (Example 5)", "set-up": "species or system human", "settings": "3.5 g of 10 wt % in water added to bleaching mixture, two hours", "experimental": "as §1, with “prop-2-en-1-aminium” for “2-(methacryloyloxy)ethan-1-aminium”, “(10” for “(12”\nas §2, §3"}},
  "data": [
    {"molecule": "OO", "note": "[hydrogen peroxide]", "values": [
      {"measurement": "reduction in the overall curl", "setting": "[1]", "value": "only slight reduction in the overall curl"},
      {"measurement": "breakage upon visual inspection", "setting": "[2]", "value": "significant breakage"}
    ]},
    {"molecule": "C=C(C)C(=O)OCCN.O=C(O)/C=C\\C(=O)O", "note": "[2-(methacryloyloxy)ethan-1-aminium (Z)-3-carboxyacrylate]", "values": [
      {"measurement": "appearance", "setting": "[3]", "value": "healthy appearance"},
      {"measurement": "breakage", "setting": "[3]", "value": "no discernible breakage"},
      {"measurement": "feel", "setting": "[3]", "value": "great feel"}
    ]},
    {"molecule": "C=CCN.O=C(O)/C=C\\C(=O)O", "note": "[prop-2-en-1-aminium (Z)-3-carboxyacrylate]", "values": [
      {"measurement": "appearance", "setting": "[4]", "value": "healthy appearance"},
      {"measurement": "breakage", "setting": "[4]", "value": "no discernible breakage"},
      {"measurement": "feel", "setting": "[4]", "value": "great feel"}
    ]}
  ]
}
